This note sets out measurements from ChEMBL document CHEMBL4808246 (Bioorg Med Chem, 2021).

Series [1] has as its target T1, Prostaglandin G/H synthase 2 (Homo sapiens, UniProt P35354).
T1 sequence (P35354 whole entry): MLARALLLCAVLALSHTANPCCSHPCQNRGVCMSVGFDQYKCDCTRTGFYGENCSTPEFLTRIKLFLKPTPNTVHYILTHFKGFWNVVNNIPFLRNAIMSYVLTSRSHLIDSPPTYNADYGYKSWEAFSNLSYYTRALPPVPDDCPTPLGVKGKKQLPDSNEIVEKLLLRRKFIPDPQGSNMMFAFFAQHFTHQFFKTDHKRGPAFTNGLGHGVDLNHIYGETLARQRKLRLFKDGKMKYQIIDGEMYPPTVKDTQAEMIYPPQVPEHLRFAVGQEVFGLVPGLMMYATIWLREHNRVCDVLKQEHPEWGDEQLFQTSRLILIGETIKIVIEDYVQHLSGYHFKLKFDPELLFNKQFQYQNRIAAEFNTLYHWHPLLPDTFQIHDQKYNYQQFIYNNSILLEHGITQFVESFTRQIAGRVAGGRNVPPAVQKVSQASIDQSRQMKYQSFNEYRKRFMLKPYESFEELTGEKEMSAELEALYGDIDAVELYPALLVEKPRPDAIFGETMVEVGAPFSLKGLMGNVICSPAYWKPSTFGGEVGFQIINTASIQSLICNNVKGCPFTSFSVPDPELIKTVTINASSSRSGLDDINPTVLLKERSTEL
The series can be described thus: Inhibition of human recombinant COX-2 assessed as production of PGE2 using arachidonic acid as a substrate preincubated for 60 mins followed by substrate addition and measured after 2 mins by ELISA analysis. (In general: ELISA stands for enzyme-linked immunosorbent assay.)

For series [2], the target named is T2, Prostaglandin G/H synthase 1 (Ovis aries) (UniProt P05979).
T2 sequence (whole entry): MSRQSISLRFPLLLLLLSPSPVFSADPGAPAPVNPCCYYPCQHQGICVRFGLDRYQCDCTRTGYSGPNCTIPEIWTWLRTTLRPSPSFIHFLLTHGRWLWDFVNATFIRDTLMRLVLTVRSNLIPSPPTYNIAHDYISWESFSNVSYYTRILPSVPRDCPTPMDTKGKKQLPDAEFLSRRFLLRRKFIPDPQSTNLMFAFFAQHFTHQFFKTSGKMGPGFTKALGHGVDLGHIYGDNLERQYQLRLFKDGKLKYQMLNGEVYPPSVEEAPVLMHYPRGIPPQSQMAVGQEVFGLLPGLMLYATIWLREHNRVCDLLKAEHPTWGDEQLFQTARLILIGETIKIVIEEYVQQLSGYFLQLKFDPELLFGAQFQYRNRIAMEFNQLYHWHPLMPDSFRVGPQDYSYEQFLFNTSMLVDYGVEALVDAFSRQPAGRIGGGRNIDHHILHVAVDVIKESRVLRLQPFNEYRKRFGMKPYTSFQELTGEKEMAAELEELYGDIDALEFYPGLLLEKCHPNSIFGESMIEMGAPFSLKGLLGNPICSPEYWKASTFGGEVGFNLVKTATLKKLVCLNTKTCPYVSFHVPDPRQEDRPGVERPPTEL
Put plainly: Inhibition of ovine COX-1 assessed as production of PGE2 using arachidonic acid as a substrate preincubated for 60 mins at 100 uM followed by substrate addition and measured after 2 mins by ELISA analysis relative to control. Particulars: time 62.0 min.

Series [3] has as its target T2, Prostaglandin G/H synthase 1 (Ovis aries). Put plainly: Inhibition of ovine COX-1 assessed as production of PGE2 using arachidonic acid as a substrate preincubated for 60 mins at 10 uM followed by substrate addition and measured after 2 mins by ELISA analysis relative to control.
For series [4] the target is unchanged. Put plainly: Inhibition of ovine COX-1 assessed as production of PGE2 using arachidonic acid as a substrate preincubated for 60 mins at 1 uM followed by substrate addition and measured after 2 mins by ELISA analysis relative to control.
The target is the same in series [5]. Put plainly: Inhibition of ovine COX-1 assessed as production of PGE2 using arachidonic acid as a substrate preincubated for 60 mins at 0.1 uM followed by substrate addition and measured after 2 mins by ELISA analysis relative to control.
For series [6], the target named is T3, Prostaglandin G/H synthase 1 (Ovis aries, UniProt P05979).
T3 sequence (P05979 whole entry): T2 sequence (whole entry)
Put plainly: Inhibition of ovine COX-1 assessed as production of PGE2 using arachidonic acid as a substrate preincubated for 60 mins followed by substrate addition and measured after 2 mins by ELISA analysis.

A short description of series [7]: Selectivity index, ratio of IC50 for ovine COX-1 to IC50 for human COX-2.
Series [8] can be described thus: Solubility of the compound in water. Particulars: buffer. The series is classed as physicochemical.
The test system of series [9] is Mus musculus. The series can be described thus: Antiinflammatory activity in mouse xylene induced ear edema model assessed as ear weight difference at 30 mg/kg, po once daily administered for 3 days prior to xylene stimulation and measured after 30 mins (reference value: 13.64 =/- 2.55 mg). The series is classed as functional. Particulars: time 3 day.
In series [10] the test system is Mus musculus. Put plainly: Antiinflammatory activity in mouse xylene induced ear edema model assessed as inhibition of auricular edemas at 30 mg/kg, po once daily administered for 3 days prior to xylene stimulation and measured after 30 mins relative to control. Type of series: functional. Particulars: 72 h, time 3 day.
In series [11] the test system is Mus musculus. Put plainly: Analgesic activity in mouse model of acetic-acid induced writhing assessed as number of writhes at 30 mg/kg, po once daily administered for 3 days prior to acetic acid injection measured after 20 mins (reference value: 29.13+/-9.36). The series is classed as functional. Particulars: time 3 day. (In writhing tests, fewer writhes than in controls are read as antinociception.)

The subject of series [12] is Mus musculus. The series can be described thus: Analgesic activity in mouse model of acetic-acid induced writhing assessed as inhibition of writhing at 30 mg/kg, po once daily administered for 3 days prior to acetic acid injection measured after 20 mins relative to control. The settings on record: 72 h, time 3 day. The series is classed as functional.
Series [13] concerns RAW264.7. The series can be described thus: Inhibition of LPS induced NO production in mouse RAW264.7 cells at 0.01 uM in the presence of 500 ng/mL LPS measured after 24 hrs by Griess reagent based assay relative to control. The series is classed as functional. A general note: Nitrite, measured by Griess reagent, commonly stands in for NO production.
Series [14] relates to RAW264.7. The series can be described thus: Inhibition of LPS induced NO production in mouse RAW264.7 cells at 0.1 uM in the presence of 500 ng/mL LPS measured after 24 hrs by Griess reagent based assay relative to control. The series is classed as functional.
In series [15] the test system is RAW264.7. The series can be described thus: Inhibition of LPS induced NO production in mouse RAW264.7 cells at 1 uM in the presence of 500 ng/mL LPS measured after 24 hrs by Griess reagent based assay relative to control. The series is classed as functional.
The test system of series [16] is RAW264.7. The series can be described thus: Inhibition of LPS induced NO production in mouse RAW264.7 cells at 10 uM in the presence of 500 ng/mL LPS measured after 24 hrs by Griess reagent based assay relative to control. The series is classed as functional.
The subject of series [17] is RAW264.7. The series can be described thus: Inhibition of LPS induced NO production in mouse RAW264.7 cells at 100 uM in the presence of 500 ng/mL LPS measured after 24 hrs by Griess reagent based assay relative to control. The series is classed as functional.
The nature of series [18]: Acute oral toxicity in female kunming mouse assessed as signs of gross toxicity measured once daily for 14 days. The settings on record: in vivo, time 14 day.
For series [19], the system named is RAW264.7. The series can be described thus: Cytotoxicity against mouse RAW 264.7 cells assessed as decreased cell viability at 0.01 to 10 uM measured after 18 hrs by MTT assay. The series is classed as cell-based. Particulars: raw264.7, 18 h, dose 0.01-10 µM.
Series [20] has as its system RAW264.7. The series can be described thus: Cytotoxicity against mouse RAW 264.7 cells assessed as decreased cell viability at 100 uM measured after 18 hrs by MTT assay. The series is classed as cell-based. Particulars: raw264.7, 18 h.
Series [21] is described as follows: Acute oral toxicity in female kunming mouse assessed as survival at 2000 mg/kg measured once daily for 14 days. Type of series: organism-based. The settings on record: in vivo, 336 h, time 14 day.
Series [22] can be described thus: Acute oral toxicity in female kunming mouse assessed as effect on liver histopathology at 2000 mg/kg measured once daily for 14 days. The series is classed as organism-based. Particulars: in vivo, 336 h, time 14 day.
The nature of series [23]: Acute oral toxicity in female kunming mouse assessed as effect on kidney histopathology at 2000 mg/kg measured once daily for 14 days. The series is classed as organism-based. The settings on record: in vivo, 336 h, time 14 day.

In general, IC50 refers to the concentration at which inhibition is half-maximal. A word on the inhibition: it is the relative decrease from the control value, in per cent. One may read the inhibition in vivo as the drop in the measured response relative to a control, in per cent. The term LD50 denotes the dose expected to kill half of the subjects tested.

For the compound `Cc1ccc(-c2cc(C)n(S(=O)(=O)Oc3ccccc3)n2)cc1`, the figures for the IC50 in [1] and in series [6] were 1.1 nM and 500 nM, respectively. The inhibition in series [2] was determined as 70%; in [3] it was 72%; in series [4], 55%; in series [5] it was 34%. In series [7], the Ratio amounted to 455. The solubility result in [8] is listed as “Insoluble”. Also, the Activity in series [9] was found to be 11.57 mg; in series [11], 14.38. In addition, the inhibition in vivo at 30 mg/kg in series [10] is 15.2%; in series [12], 50.7%. For the same compound, the inhibition at 0.01 µM in series [13] is 10.5%. The inhibition at 0.1 µM in series [14] came out at 18.1%. Moreover, in [15], the inhibition at 1 µM turned out to be 19.3%. Also, the inhibition at 10 µM in series [16] was 21.1%. For the same compound, the inhibition at 100 µM in [17] was 31.6%. The LD50 at 336 h in series [18] was greater than 2000 mg/kg.

As to `Cc1cc(-c2ccccn2)nn1S(=O)(=O)Oc1ccc(Cl)cc1`, the IC50 in series [1] is 5.8 nM; in series [6] it was 90 nM. In addition, the inhibition stood at 83% in series [2], 80% in series [3], 56% in series [4] and 51% in series [5]. Moreover, in [7], the Ratio is 16.

For the compound `Cc1ccc(-c2cc(C)n(S(=O)(=O)Oc3ccc(I)cc3)n2)cc1`, the figures for the IC50 in series [1] and in series [6] were 9.2 nM and 96600 nM, respectively. The inhibition in series [2] came to 48%; in [3], 41%; in series [4], 35%; in [5] it was 17%. In addition, the Ratio in series [7] amounted to 10500. For the same compound, the solubility entry in series [8] is given as “Insoluble”. Also, the Activity in series [9] is recorded as 9.96 mg; in [11] it was 24.13; in series [19], “Non-Toxic”; in [20], 40%; in series [21], “Non-Toxic”; in [22], “Non-Toxic”. The Activity result in [23] is listed as “Non-Toxic”. Moreover, the inhibition in vivo at 30 mg/kg came to 27% in [10] and 17.2% in [12].

For the compound `Cc1ccc(-c2cc(C(F)(F)F)nn2-c2ccc(S(N)(=O)=O)cc2)cc1` [CELECOXIB], the solubility result in [8] is “Insoluble”. For the same compound, the Activity in series [9] was 9.79 mg; in series [11] it was 18.63; in series [19], 80%. The inhibition in vivo at 30 mg/kg in [10] came to 28.2%. Besides, in series [13], the inhibition at 0.01 µM worked out at 16.5%. In [14], the inhibition at 0.1 µM came to 19.6%. Besides, the inhibition at 1 µM in series [15] came to 16.5%. For the same compound, the inhibition at 10 µM in [16] stood at 14.8%. In [17], the inhibition at 100 µM is 50.2%.

As for `Cc1ccc(-c2cc(C)n(S(=O)(=O)Oc3ccccc3I)n2)cc1`, the IC50 in series [1] is 92 nM; in [6], greater than 100000 nM. The inhibition in series [2] was determined as 19%; in series [3] it was 14%; in series [4], 9%; in series [5], 4%. The Ratio in series [7] was greater than 1090.

On to `O=S(=O)(Oc1ccccc1)n1nc(-c2ccccc2)cc1-c1ccccc1`, for which the IC50 was less than 10 nM in [1] and 9380 nM in series [6]. Also, the inhibition in [2] was determined as 68%; in series [3], 44%; in series [4], 36%; in [5], 27%. The Ratio in series [7] was greater than 938. Besides, the solubility result in [8] is recorded as “Insoluble”. Also, the Activity in series [9] is reported as 10.13 mg; in series [11], 17.75. Also, the values for the inhibition in vivo at 30 mg/kg in series [10] and in series [12] were 25.7% and 39.1%, respectively.
